Experimental data taken from patent US4283527A, “Erythromycylamine 11,12-carbonate and derivatives thereof” (Pfizer Inc., priority 1980, dated 1981).
Read-outs that look alike come from different tables or passages of the source.

Tests used:
Streptococcus faecalis = conditions: strain 02A006
Streptococcus pneumoniae = conditions: strain 02J012
Bacillus subtilis = conditions: strain 06A001
Klebsiella oxytoca = conditions: strain 53D024
Pasteurella multocida = conditions: strain 59A001
Serratia marcescens = conditions: strain 63A017
Neisseria sicca = conditions: strain 66C000
Enterobacter aeruginosa = conditions: strain 67A040
Enterobacter cloacea = conditions: strain 67B009
Providentia stuarti = conditions: strain 77A013
Providentia retgerii = conditions: strain 77CA025
Morgani morgansus = conditions: strain 97A001
Hemophilus influenzae = conditions: strain 54A036

Measured: MIC

9(S)-Erythromycylamine 11,12-Carbonate
12.5 µg/mL: Staphylococcus aureus; strain 01A400R, R = resistant to erythromycin
> 50 µg/mL: Staphylococcus aureus; strain 01A110R, R = resistant to erythromycin | Staphylococcus epidermis; strain 01B037R, R = resistant to erythromycin | Staphylococcus epidermis; strain 01B126R, R = resistant to erythromycin | Pseudomonas aeruginosa; strain 52A104 | Pseudomonas aeruginosa; strain 52A663 | Klebsiella oxytoca | Serratia marcescens | Enterobacter cloacea | Providentia stuarti | Providentia retgerii | Morgani morgansus
0.39 µg/mL: Streptococcus faecalis | Pasteurella multocida
0.20 µg/mL: Staphylococcus aureus; strain 01A005 | Staphylococcus aureus; strain 01A052 | Staphylococcus epidermis; strain 01B111
50 µg/mL: Klebsiella pneumoniae; strain 53A009 | Klebsiella pneumoniae; strain 53A031 | Enterobacter aeruginosa
0.78 µg/mL: Streptococcus pyogenes; strain 02C040 | Escherichia coli; strain 51A470
3.12 µg/mL: Neisseria sicca | Hemophilus influenzae
< .02 µg/mL: Streptococcus pyogenes; strain 02C203
0.10 µg/mL: Streptococcus pneumoniae | Bacillus subtilis
25 µg/mL: Escherichia coli; strain 51A125 | Escherichia coli; strain 51A129 | Escherichia coli; strain 51A266
